Source: US20250333397A1 (REMIX THERAPEUTICS INC., priority 2021, published 2025)
Where a name gives a salt, the structure may show the parent alone. Read-outs that look alike come from different tables or passages of the source.

Legend:
Assay type in all cases: cell-based, human
Target C mRNA = assay: RT-qPCR splicing assay panel, Target C canonical junction (CJ) mRNA; conditions: canonical junction (CJ) mRNA, RT-qPCR panel, Table 4A, read-out: Target C, decrease in CJ mRNA levels, IC50
Procedure, shortened: (§1)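 CJ and AJ junction levels were quantified by RT-qPCR on lysates, with housekeeper ΔCt normalized to DMSO (ΔΔCt) and expressed as RQ = 2^(-ΔΔCt). Before lysis, K562 or A673 cells had 24 h compound exposure at 37 °C. Dosing was 11 points, 3-fold, from 10 uM final, with DMSO at most 0.25%.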

SMN2 mRNA = assay: RT-qPCR splicing assay panel, SMN2 canonical junction (CJ) mRNA; conditions: canonical junction (CJ) mRNA, RT-qPCR panel, Table 4A, read-out: SMN2, decrease in CJ mRNA levels, IC50
Procedure, shortened: as §1

HTT mRNA = assay: RT-qPCR splicing assay, HTT canonical (CJ) and alternative (AJ) junction mRNA; conditions: for AC50: read-out: HTT AJ (AC50, increase in AJ mRNA)
Procedure, shortened: as §1

MYB mRNA = assay: RT-qPCR splicing assay, MYB canonical (CJ) and alternative (AJ) junction mRNA; conditions: for AC50: read-out: MYB AJ (AC50, increase in AJ mRNA)
Procedure, shortened: as §1

[1] = Table 3A, A673 or K562 cells, 24 h treatment
[2] = Table 3A, A673 or K562 cells, 24 h treatment, read-out: HTT CJ (IC50, decrease in CJ mRNA)
[3] = canonical junction (CJ) mRNA, RT-qPCR panel, Table 4A, read-out: HTT, decrease in CJ mRNA levels, IC50
[4] = Table 3A, A673 or K562 cells, 24 h treatment, read-out: MYB CJ (IC50, decrease in CJ mRNA)
[5] = canonical junction (CJ) mRNA, RT-qPCR panel, Table 4A, read-out: MYB, decrease in CJ mRNA levels, IC50
[6] = Homo sapiens, 24 h, Table 3A, A673 or K562 cells, 24 h treatment
[7] = Homo sapiens, 24 h, Table 3A, A673 or K562 cells, 24 h treatment, read-out: HTT CJ (IC50, decrease in CJ mRNA)
[8] = Homo sapiens, canonical junction (CJ) mRNA, RT-qPCR panel, Table 4A, read-out: HTT, decrease in CJ mRNA levels, IC50
[9] = Homo sapiens, 24 h, Table 3A, A673 or K562 cells, 24 h treatment, read-out: MYB CJ (IC50, decrease in CJ mRNA)
[10] = Homo sapiens, canonical junction (CJ) mRNA, RT-qPCR panel, Table 4A, read-out: MYB, decrease in CJ mRNA levels, IC50

| Compound | IC50 (Target C mRNA) | IC50 (SMN2 mRNA) | AC50 (HTT mRNA; [1]) | IC50 (HTT mRNA; [2]) | IC50 (HTT mRNA; [3]) | AC50 (MYB mRNA; [1]) | IC50 (MYB mRNA; [4]) | IC50 (MYB mRNA; [5]) | IC50 (Target C mRNA; Homo sapiens) | IC50 (SMN2 mRNA; Homo sapiens) | AC50 (HTT mRNA; [6]) | IC50 (HTT mRNA; [7]) | IC50 (HTT mRNA; [8]) | AC50 (MYB mRNA; [6]) | IC50 (MYB mRNA; [9]) | IC50 (MYB mRNA; [10]) |
| --- | --- | --- | --- | --- | --- | --- | --- | --- | --- | --- | --- | --- | --- | --- | --- | --- |
| COc1cc(-c2ccc(-c3ccc(N4CC[C@H](NC5(C)CC5)C4)nn3)c(O)c2)cnn1 [Compound 265, 5-(6-methoxypyridazin-4-yl)-2-{6-[(3S)-3-[(1-methylcyclopropyl)amino]pyrrolidin-1-yl]pyridazin-3-yl}phenol] | < 100 nM | < 100 nM | < 100 nM | < 100 nM | < 100 nM | < 100 nM | < 100 nM | < 100 nM |  |  |  |  |  |  |  |  |
| Cc1cn2cc(-c3ccc(-c4ccc(N5CCC(NC6CCC6)C5)nn4)c(O)c3)ncc2n1 (stereo not drawn) [Compound 327] |  |  |  |  |  |  |  |  | 1000 to 10000 nM | < 100 nM | 100 to 1000 nM | 100 to 1000 nM | 100 to 1000 nM | 100 to 1000 nM | 1000 to 10000 nM | 1000 to 10000 nM |
| COc1cc(-c2cc(O)c(-c3ccc(N4CC[C@H](NC5CC5)C4)nn3)cc2F)cnn1 [Compound 214, 2-{6-[(3S)-3-(cyclopropylamino)pyrrolidin-1-yl]pyridazin-3-yl}-4-fluoro-5-(6-methoxypyridazin-4-yl)phenol] |  |  |  |  |  |  |  |  | 100 to 1000 nM | < 100 nM | < 100 nM | < 100 nM | < 100 nM | 100 to 1000 nM | 100 to 1000 nM | 100 to 1000 nM |
| Cc1nc(-c2ccc(-c3ccc(N4CCC(NC5CCC5)C4)nn3)c(O)c2)cs1 (stereo not drawn) [Compound 413] | > 10000 nM | 1000 to 10000 nM | 1000 to 10000 nM | 1000 to 10000 nM | 1000 to 10000 nM | 1000 to 10000 nM | 1000 to 10000 nM | 1000 to 10000 nM |  |  |  |  |  |  |  |  |
| Oc1cc(-c2cn[nH]c2)ccc1-c1ccc(N2CCC(NC3CC3)C2)nn1 (stereo not drawn) [Compound 102, 2-(6-(3-(cyclopropylamino)pyrrolidin-1-yl)pyridazin-3-yl)-5-(1H-pyrazol-4-yl)phenol] | > 10000 nM | 1000 to 10000 nM | > 10000 nM | > 10000 nM | > 10000 nM | > 10000 nM | > 10000 nM | > 10000 nM |  |  |  |  |  |  |  |  |
| Oc1cc(-c2cnc(C(F)(F)F)s2)c(F)cc1-c1ccc(N2CCC(NC3CCC3)C2)nn1 (stereo not drawn) [Compound 390] |  |  |  |  |  |  |  |  | > 10000 nM | 1000 to 10000 nM | > 10000 nM | > 10000 nM | > 10000 nM | > 10000 nM | > 10000 nM | > 10000 nM |
| COCCc1cc(-c2ccc(-c3ccc(N4CCC(NC5CCC5)C4)nn3)c(O)c2)cnn1 (stereo not drawn) [Compound 430] |  |  |  |  |  |  |  |  | > 10000 nM | > 10000 nM | > 10000 nM | > 10000 nM | > 10000 nM | > 10000 nM | > 10000 nM | > 10000 nM |
| CC(C)(C)NC1CCN(c2ccc(-c3ccc(-n4cccn4)c(O)c3)nn2)C1 (stereo not drawn) [Compound 109, 5-{6-[3-(tert-butylamino)pyrrolidin-1-yl]pyridazin-3-yl}-2-(pyrazol-1-yl)phenol trifluoroacetate] |  |  |  |  |  |  |  |  | > 10000 nM | 1000 to 10000 nM | > 10000 nM | 1000 to 10000 nM | 1000 to 10000 nM | > 10000 nM | > 10000 nM | > 10000 nM |
| CN(C1CCC1)[C@H]1CCN(c2ccc(-c3cc(F)c(-c4cn[nH]c4)cc3O)nn2)C1 [Compound 295] |  |  |  |  |  |  |  |  | < 100 nM | < 100 nM | < 100 nM | < 100 nM | < 100 nM | 100 to 1000 nM | 100 to 1000 nM | 100 to 1000 nM |
| Cn1ccc(-c2ccc(-c3ccc(N4CCC(NC5CCC5)C4)nn3)c(O)c2)nc1=O (stereo not drawn) [Compound 306] |  |  |  |  |  |  |  |  | 1000 to 10000 nM | 100 to 1000 nM | 1000 to 10000 nM | 1000 to 10000 nM | 1000 to 10000 nM | 1000 to 10000 nM | 1000 to 10000 nM | 1000 to 10000 nM |
| Cc1ncc(-c2ccc(-c3ccc(N4CC[C@@](C)(NCC5CC5)C4)nn3)c(O)c2)s1 (single isomer, unassigned) [Compound 439] |  |  |  |  |  |  |  |  | < 100 nM | < 100 nM | < 100 nM | < 100 nM | < 100 nM | 100 to 1000 nM | 100 to 1000 nM | 100 to 1000 nM |
| Oc1cc(-c2cnc(C3CC3)s2)c(F)cc1-c1ccc(N2CCC(NC3CCC3)C2)nn1 (stereo not drawn) [Compound 444] |  |  |  |  |  |  |  |  | > 10000 nM | 1000 to 10000 nM | > 10000 nM | > 10000 nM | > 10000 nM | > 10000 nM | > 10000 nM | > 10000 nM |
| COc1cc(-c2ccc(-c3ccc(N4CCC(N[C@H]5C[C@H](OC)C5)C4)nn3)c(O)c2)cnn1 (stereo partly drawn) [Compound 448] |  |  |  |  |  |  |  |  | 100 to 1000 nM | < 100 nM | 100 to 1000 nM | 100 to 1000 nM | 100 to 1000 nM | 100 to 1000 nM | 100 to 1000 nM | 100 to 1000 nM |
| COc1cc(-c2ccc(-c3ccc(N4CC[C@@H](NCC5CC5)C4)nn3)c(O)c2)ncn1 [Compound 382, 2-{6-[(3R)-3-[(cyclopropylmethyl)amino]pyrrolidin-1-yl]pyridazin-3-yl}-5-(6-methoxypyrimidin-4-yl)phenol] |  |  |  |  |  |  |  |  | 100 to 1000 nM | < 100 nM | 100 to 1000 nM | < 100 nM | < 100 nM | 100 to 1000 nM | 100 to 1000 nM | 100 to 1000 nM |
| COc1cc(-c2ccc(-c3ccc(N4CCC(NC5CC6(CCC6)C5)C4)nn3)c(O)c2)cnn1 (stereo not drawn) [Compound 353, 5-(6-methoxypyridazin-4-yl)-2-[6-(3-{spiro[3.3]heptan-2-ylamino}pyrrolidin-1-yl)pyridazin-3-yl]phenol] |  |  |  |  |  |  |  |  | 100 to 1000 nM | < 100 nM | 100 to 1000 nM | 100 to 1000 nM | 100 to 1000 nM | 1000 to 10000 nM | 1000 to 10000 nM | 1000 to 10000 nM |
